Measurements reported in patent publication US9540378B2, “Composition comprising purine derivatives or salt thereof for preventing or treating atopic dermatitis” (DAEWOONG CO., LTD., priority 2012, dated 2017).
Marks after values point to notes of the source that are not given here.

Tests used:
[1] = system: NC/Nga mice, animal models of atopic dermatitis; experiment: In vivo inhibitory activity against atopic dermatitis in 2,4-DNFB-induced NC/Nga mice; conditions: for Reducing ratio (%) Dermatitis score: applied on affected sites twice per day for 10 days; for Reducing ratio (%) Dermatitis score / Reducing ratio (%) Difference of left and right ear thicknesses / Reducing ratio (%) Epidermis thickness / Reducing ratio (%) Number of mast cells / Reducing ratio (%) Serum IgE level: vs atopic control group; for Reducing ratio (%) Difference of left and right ear thicknesses / Reducing ratio (%) Epidermis thickness / Reducing ratio (%) Number of mast cells / Reducing ratio (%) Serum IgE level: topical, 10 days
Procedure: NC/Nga mice (male, 6 weeks old), animal models of atopic dermatitis, were subject to complete hair removal of the back skin, and then left for 24 hours for healing the minute wounds on the skin. Atopic dermatitis was induced to the mice as follows. That is, a 0.2% solution of 2,4-DNFB (2,4-dinitrofluorobenzene) was prepared by dissolving in a mixed solvent of acetone and olive oil (3:1, v/v). The solution (150 μl) was applied on the hair-removed site of each mouse twice per week for 4 weeks, to induce atopic dermatitis.
The normal control group (NC) was subject to only complete hair removal of the back skin. In case of the atopic dermatitis-induced atopic control group (AC), only Vaseline was applied on the hair-removed sites. […] Each group includes 8 mice.
The therapeutic activity against atopic dermatitis was evaluated through measuring dermatitis scores, epidermis thicknesses, left and right ear thicknesses, serum IgE levels, and numbers of mast cells.
The dermatitis scores were determined by observing the affected sites at the time when the treatments were completed, and then evaluating the visual changes such as erythema, bleeding, scab, etc., so as to yield the scores ranging from 1 to 10. From the resulting dermatitis scores, the inhibition ratio of each test group was calculated in comparison with the atopic control group.
Skin tissue was taken in a size of 1 cm×1 cm from the central area of each affected site, fixed with 10% formaldehyde solution, embedded in paraffin film, and then cut into a 4 μm section. Each tissue section was subject to hematoxylin-eosin (H&E) staining, and then observed with an optical microscope (×200, 5 sites per tissue) so as to calculate the epidermis thickness thereof.
The left and right ear thicknesses were measured with a digital vernier caliper, at the time when the test was started and at the time when the test was completed.
The serum IgE level was measured in the blood collected from the heart of each group mice, according to ELISA (Enzyme-linked immunosorbent assay) methods.
Skin tissue was taken in a size of 0.5 cm×1 cm from the central area of each affected site, fixed with IHC zinc fixative formalin-free solution, embedded in paraffin film, and then cut into a 4 μm section. Each tissue section was adhered on a slide coated with poly-L-lysine, followed by removing the paraffin and hydrating. Each resulting section was subject to toluidine blue staining, and then observed with an optical microscope (×200, 3 sites per tissue) so as to measure the number of mast cells.
All measurement values were calculated in mean±standard deviation. Statistical significances were determined with ANOVA. ≦5% is considered as being statistically significant.

IL-6 = experiment: Inhibition of inflammatory cytokine mRNA expression (RT-PCR) in LPS-treated Raw264.7 cells: IL-6; assay type: cell-based, mouse; conditions: 400 uM, LPS 1 ug/ml, 24 hours
Procedure: (§1) The inhibitory activity of the compound of Formula 1 was evaluated against the expressions of inflammatory cytokines of atopic dermatitis, i.e., IL-6, IL-10, IL-12p40, and COX-2. Briefly, the Raw264.7 mouse macrophage cell line (ATCC TIB-71) (about 1×10^6 cells) was added into the each well of a 12-well plate and then incubated in a RPMI medium supplemented with 100 U/ml penicillin, 100 ug/ml streptomycin and 10% fetal bovine serum. The cells were treated with the compound of Formula 1 (400 uM) and LPS (1 ug/ml), and then incubated under the condition of 37° C., 5% CO2 for 24 hours. The cells isolated from each group of the medium were treated with a Trizol reagent to extract the total RNA. Each cDNA was prepared according to the vendor's instruction, using a First strand cDNA synthesis kit (Fermentas). The resulting cDNAs (in the same amount for each cDNA) were subject to PCR amplification. The sense and antisense primers used were prepared according to the disclosures, i.e., Zhi-Qiang Chang et al., J. Nutr. Sci. Vitaminol., 2011, 27, p 118-122, JiYeon Lee et al., Biol. Pharm. Bull., 2007, 30(11), p 2043-2051, E. V. Maryukhnich et al., Biol. Sci., 2007, 414, p 242-245. […]

IL-10 = experiment: Inhibition of inflammatory cytokine mRNA expression (RT-PCR) in LPS-treated Raw264.7 cells: IL-10; assay type: cell-based, mouse; conditions: 400 uM, LPS 1 ug/ml, 24 hours
Procedure: as §1

IL-12p40 = experiment: Inhibition of inflammatory cytokine mRNA expression (RT-PCR) in LPS-treated Raw264.7 cells: IL-12p40; assay type: cell-based, mouse; conditions: 400 uM, LPS 1 ug/ml, 24 hours
Procedure: as §1

COX-2 = experiment: Inhibition of inflammatory cytokine mRNA expression (RT-PCR) in LPS-treated Raw264.7 cells: COX-2; assay type: cell-based, mouse; conditions: 400 uM, LPS 1 ug/ml, 24 hours
Procedure: as §1

[2] = 0.03% and 0.1%, applied on affected sites for 10 days

## Cn1c(N)nc2c(ncn2C)c1=O [compound of Formula 1, 2-amino-1,9-dimethylpurin-6-one]
[1]; [2]
  dermatitis scores, in words: significantly reduced
  differences of left and right ear thicknesses, in words: significantly reduced
  epidermis thicknesses, in words: significantly reduced
  numbers of mast cells, in words: significantly reduced
  serum IgE levels, in words: significantly reduced
[1]; Test group 1 (0.03%)
  Reducing ratio (%) Dermatitis score: 8.96* %
  Reducing ratio (%) Difference of left and right ear thicknesses: 7.69%
  Reducing ratio (%) Epidermis thickness: 36.13*** %
  Reducing ratio (%) Number of mast cells: 7.7%
  Reducing ratio (%) Serum IgE level: 51.76%
[1]; Test group 2 (0.1%)
  Reducing ratio (%) Dermatitis score: 24.00*** %
  Reducing ratio (%) Difference of left and right ear thicknesses: 38.46%
  Reducing ratio (%) Epidermis thickness: 52.63*** %
  Reducing ratio (%) Number of mast cells: 24.9** %
  Reducing ratio (%) Serum IgE level: 56.46** %
IL-6
  IL-6 mRNA expression level: effectively inhibited
IL-10
  IL-10 mRNA expression level: effectively inhibited
IL-12p40
  IL-12p40 mRNA expression level: effectively inhibited
COX-2
  COX-2 mRNA expression level: effectively inhibited
